Source: US10829528B2, “Therapeutic agents for neurological and psychiatric disorders” (VIB VZW, priority 2016, dated 2020)
Where no end group is shown, it is not given here.

How the values were obtained:
[1] = system: primary hippocampal neurons; test: mEPSCs & mIPSCs in cultured primary hippocampal neurons (wild type); type: cell-based, mouse; settings: for effect on mEPSC frequency (in words) / effect on mIPSC frequency (in words): 250 nM each
Experimental: mEPSCs & mIPSCs are measured in cultured primary hippocampal neurons at baseline and following acute application of agonists. Excitatory terminals selectively express the sushi domain-containing GABABR1a isoform (ref18), where it functions to inhibit neurotransmitter release (ref 24). Acute exposure of primary hippocampal neurons from wild type mice to 30μM baclofen, a GABABR agonist, or 250 nM sAPPα (Fc cleaved) reduces the frequency of miniature excitatory postsynaptic currents (mEPSCs) by 68% (FIG. 8 a,b) and 39% (FIG. 8 c,d), respectively, with no effect on mEPSC amplitude (FIG. 8e). […] Acute application of 30 μM baclofen or 250 nM purified sAPPα reduces the frequency of miniature inhibitory postsynaptic currents (mIPSCs) by 63% (FIG. 8a, 9a) and 44% (FIG. 8c, 9b), respectively, which is blocked by pretreatment with the GABABR antagonist CGP55845 (CGP, 5 μM) (FIG. 8f, 9d). Application of sAPPα causes a minor (14%) reduction on mIPSC amplitude (FIG. 8e, 9c). […] Baclofen is known to reduce the frequencies of mEPSCs and mIPSCs, which we have also confirmed. […] To confirm that the agonist is acting through GABABR1a, the agonist is tested in cultures with shRNA mediated knockdown of GABABR1a or antisense oligonucleotides mediated exon skipping of the exon encoding the Sushi domain 1 of GABABR1a. Antagonists are tested by treatment in combination with the agonist, Baclofen. […] As an antagonist we test an antibody against the sushi domain sequence (SEQ ID No: 5): […] SWTDMDTPSRCV. An antibody specifically binding to this domain which acts as an antagonist increases the frequencies of mEPSCs and mIPSCs. sAPPα also reduces mEPSC and mIPSC frequency in App/Aplp1 dKO cultures (FIG. 8j, 9f), excluding the possibility that sAPPα interferes with a complex of full-length APP and GABABR1 to exert its effect on GABABR signaling.
Hippocampal neurons were cultured from E18 C57/B16 wild type mice or APP/APLP1 dKO mice (provided by Ulrike Muller46) and plated on poly-D-lysine (Millipore), and laminin (Invitrogen) coated coverslips (Nalge Nunc International). Neurons were maintained in Neurobasal medium (Invitrogen) supplemented with B27, glucose, glutamax, penicillin/streptomycin (Invitrogen) and 25 μM β-mercaptoethanol.
Single neurons from wild type or APP/APLP1 null mutant embryos (E18) were recorded within the large neuronal network at DIV 12-15. The intracellular whole-cell pipette medium contained (in mM): 136 KCl, 18 HEPES, 4 Na-ATP, 4.6 MgCl2, 15 Creatine Phosphate, 1 EGTA and 50 U/ml Phospocreatine Kinase (300 mOsm, pH 7.30). Regular external solution contained 2 mM/2 mM Ca2+/Mg2+(in mM: 140 NaCl, 2.4 KCl, 2 CaCl2), 2 MgCl2, 10 HEPES, 14 Glucose (300 mOsm, pH 7.30)) and TTX (1 μM). Pharmacological reagents (30 μM baclofen, 5 μM CGP), sAPLP1, full length sAPP and sAPP derived peptides (250 nM each) were bath applied (dissolved in external medium described above) using a separate gravity driven application inlet. Recordings were done in whole cell voltage clamp configuration at −70 mV with a double EPC-10 amplifier (HEKA Elektronik) under control of Patchmaster v2×32 software (HEKA Elektronik). Currents were low-pass filtered at 3 kHz and stored at 20 kHz. Patch pipettes were pulled from borosilicate glass using a multi-step puller (P-1000; Sutter Instruments). Pipette resistance ranged from 3 to 5 MΩ and was compensated to 75-80%. Only cells with series resistances <15 MΩ were included in analysis. All recordings were done at room temperature. Spontaneous events were detected using Mini Analysis program (Synaptosoft). mEPSCs and mIPSCs were separated on the basis of their distinct decay kinetics, using a threshold of 5 ms47. Baseline was determined from an average of 60 sec of recordings prior to protein or drug treatment. Effect of treatment was determined from an average of 30 sec recordings after 140 sec of protein or drug treatment.

[2] = system: Schaffer collateral (SC) synapses in mouse hippocampus; test: fEPSP field recordings at Schaffer collateral synapses in hippocampal slices; type: cell-based
Experimental: We assessed the effect of sAPPα on the synaptic properties of Schaffer collateral (SC) synapses in mouse hippocampus. […] As change in probability of neurotransmitter release inversely correlates with a change in short-term facilitation, we applied a burst of 5 stimuli at 3 different frequencies (20, 50, and 100 Hz) to induce short-term facilitation at the SC. […] Preincubation with the GABABR antagonist CGP54626 (CGP, 10 μM) for 20 min before the incubation with sAPPα blocked its effects on the peak amplitude of the fESPS and the input/output slopes (FIG. 10f-g). Accordingly, CGP occluded sAPPα-induced augmentation of short-term facilitation at 20, 50, and 100 Hz burst frequencies (FIG. 10h-j).
On the day of recording the brain of a 2-month-old Balb/c male mouse was quickly removed and 400 μm-thick horizontal slices were prepared in an ice-cold oxygenated buffer containing (in mM): sucrose, 182; KCl, 2.5; MgSO4, 2; NaH2PO4, 1.25; NaHCO3, 25; CaCl2), 0.8; MgCl2, 5; glucose, 25; ascorbate, 1; HEPES, 20. The slicing procedure was performed using a Leica VT1200 vibrating microtome. Slices were then transferred to a submerged recovery chamber at room temperature containing oxygenated (95% 02 and 5% C02) storage artificial cerebrospinal fluid (ACSF) for 30 min before the incubations (see below). The storage ACSF contained, in mM: NaCl, 100; KCl, 2.5; MgSO4, 2; NaH2PO4, 1.25; NaHCO3, 25; CaCl2), 1.2; MgCl2, 3; glucose, 20; ascorbate, 1; sodium pyruvate,3 and HEPES, 20. The slices were incubated in the incubation chambers perfused with oxygenated storage ACSF containing the experimental agents for 90 min before performing field recordings: In the incubation chamber, control slices were perfused with normal storage ACSF while sAPPα slices were perfused with storage ACSF containing 1 μM sAPPα. CGP slices were perfused with storage ACSF containing 10 μM CGP54626 (Tocris). CGP+sAPPα slices were preincubated in the chamber perfused with ACSF+CGP before being transferred into the chamber perfused with storage ACSF implemented with 10 μM CGP54626+1 μM sAPPα. All recordings were performed at 32-33° C. in a recording chamber perfused with ACSF (4 ml/min) on the stage of an Olympus BX51WI microscope equipped with IR optics and oblique illumination. Recording ACSF contains, in mM: NaCl, 129; KCl, 2.5; CaCl2), 1.2; MgCl2, 1.2; NaHCO3, 25; NaH2PO4, 1.25; glucose, 15. Stimulation of the Schaffer-collateral was delivered through a glass suction electrode (10-20 μm tip) filled with ACSF. fEPSPs were recorded using a glass pipette containing ACSF (1-2 MΩ) from proximal synapses in the CA1 stratum radiatum. Field recording experiments were analyzed using Clampfit.

[3] = system: cultured hippocampal neurons; test: FM1-43 dye labeling of presynaptic vesicle recycling; type: cell-based, mouse; settings: 1 μM sAPPα in the presence of CGP
Experimental: We assessed the effect of sAPPα on synaptic vesicle recycling (ref6) using the activity-dependent dye FM1-43. We measured density (D) and intensity (ΔF) of FM1-43 uptake in presynaptic vesicles turned over by stimulation of 30 action potentials (APs) at a rate of 1 Hz in cultured hippocampal neurons.
The experiments were performed in mature (15-28 days in vitro) cultures. Hippocampal neurons were imaged using a FV1000 spectral Olympus confocal microscope using a 60×1.2 NA water immersion objective. The experiments were conducted at room temperature in extracellular Tyrode solution containing (in mM): NaCl, 145; KCl, 3; glucose, 15; HEPES, 10; MgCl2, 1.2; CaCl2), 1.2; pH adjusted to 7.4 with NaOH. For FM-based imaging and analysis, activity-dependent FM1-43 (10 μM) styryl dye was used to estimate basal synaptic vesicle recycling using previously described protocol48. Briefly, action potentials were elicited by passing 50 mA constant current for 1 ms through two platinum wires, separated by ˜7 mm and close to the surface of the coverslip. The extracellular medium contained non-selective blocker of glutamate receptors (0.5 mM kynurenic acid) to block recurrent neuronal activity. 30 stimuli at 1 Hz were applied during FM1-43 loading, while 800 stimuli at 2 Hz during unloading. The fluorescence of individual synapses was determined from the difference between images obtained after staining and after destining (ΔF). Detection of signals was done using custom-written scripts in MATLAB (Mathworks) as described before48.

Question: Which “block of the reduction of mIPSC frequency” value ([1]; pretreatment with antagonist 5 μM) does the source give for `C[C@H](NC[C@H](O)CP(=O)(O)Cc1ccccc1)c1ccc(Cl)c(Cl)c1` [CGP55845, reference compound] here?
Answer: blocked

Question: And the “block of the sAPPα effect on mEPSC frequency” value ([1]; pretreatment with antagonist 5 μM, then 250 nM sAPPα)?
Answer: blocks the effect of sAPPα on mEPSC frequency

Question: How did the “reduction of mEPSC frequency” value ([1]; 30 µM) turn out when `NCC(CC(=O)O)c1ccc(Cl)cc1` (stereo not shown) [baclofen, reference compound] was run?
Answer: 68%

Question: What about the “reduction of mIPSC frequency” value ([1]; 30 µM) of the same molecule?
Answer: 63%

Question: Which “effect on mEPSC frequency (in words)” value ([1]; acute application) does the source give for “DDSDVWWGGADTDYADG [17mer peptide, DDSDVWWGGADTDYADG]” here?
Answer: reduces mEPSC frequency to a similar degree as sAPPα

Question: What about the “effect on mIPSC frequency (in words)” value ([1]; acute application) of the same molecule?
Answer: reduce mIPSC frequency to a similar extent as sAPPα

Question: `C[C@H](NC[C@H](O)CP(=O)(O)CC1CCCCC1)c1ccc(Cl)c(Cl)c1` [CGP54626, reference compound] was tested. Which “block of sAPPα effects on peak fEPSP amplitude and input/output slopes” value ([2]; 10 μM preincubation for 20 min before sAPPα) did it give?
Answer: blocked

Question: What about the “occlusion of sAPPα-induced augmentation of short-term facilitation” value ([2]; 10 μM, 20, 50 and 100 Hz burst frequencies) of the same molecule?
Answer: occluded

Question: And the “occlusion of the sAPPα effect on presynaptic strength” value [3]?
Answer: occluded

B1: ExD-AcD: extension domain-acidic domain fragment of APP695 (195-298aa), non-Fc protein used in ITC and functional assays (protein)
chain: SVDSADAEEDDSDVWWGGADTDYADGGEDKVVEVAEEEEVADVEEEEADDDEDVEDGDEVEEEAEEPYEEATERTTSTATTTTTTTESVEEVVRVPTTAASTPD
modifications: left off: a dimerising Fc or GST; small tags and cut ends
notes: extension domain-acidic domain fragment of APP695 (195-298aa), non-Fc protein used in ITC and functional assays
Question: With B1 as the molecule, how does the “effect on mEPSC frequency (in words)” value ([1]; acute application) read?
Answer: reduces mEPSC frequency to a similar degree as sAPPα

Question: And the “effect on mIPSC frequency (in words)” value ([1]; acute application)?
Answer: reduce mIPSC frequency to a similar extent as sAPPα

B2: sAPLP1: soluble ectodomain of APP-like protein 1 (protein, UniProt Q03157 39-584, looked up)
extracellular domain: NLAVGSPSAAEAPGSAQVAGLCGRLTLHRDLRTGRWEPDPQRSRRCLLDPQRVLEYCRQMYPELHIARVEQAAQAIPMERWCGGTRSGRCAHPHHEVVPFHCLPGEFVSEALLVPEGCRFLHQERMDQCESSTRRHQEAQEACSSQGLILHGSGMLLPCGSDRFRGVEYVCCPPPATPNPSGMAAGDPSTRSWPLGGRAEGGEDEEEVESFPQPVDDYFVEPPQAEEEEEEEEERAPPPSSHTPVMVSRVTPTPRPTDGVDVYFGMPGEIGEHEGFLRAKMDLEERRMRQINEVMREWAMADSQSKNLPKADRQALNEHFQSILQTLEEQVSGERQRLVETHATRVIALINDQRRAALEGFLAALQGDPPQAERVLMALRRYLRAEQKEQRHTLRHYQHVAAVDPEKAQQMRFQVQTHLQVIEERMNQSLGLLDQNPHLAQELRPQIQELLLAEHLGPSELDASVPGSSSEDKGSLQPPESKDDPPVTLPKGSTDQESSSSGREKLTPLEQYEQKVNASAPRGFPFHSSDIQRDELAPSGTGVSRE
modifications: extracellular domain
Question: How did the “effect on mEPSC frequency (in words)” value ([1]; acute application) turn out when B2 was run?
Answer: not

Question: And the “reduction of mIPSC frequency” value ([1]; acute application, 30 μM baclofen, 250 nM proteins)?
Answer: 17%
